Measurements: PMC12040169 (PLOS Biology, 2025)

Assay: in vitro
Settings: human, hela cells, % viability
With COc1ccc(NC(=O)CSc2nc3c(c(-c4cccs4)c2C#N)CN(C)CC3)cc1OC [CBK267444] the viability at 28.5 h, 10 µM was 103%. With CN1CCc2nc(SCC(=O)NC(C)(C)C)c(C#N)cc2C1 [CBK267445] the viability at 28.5 h, 10 µM was 87.4%. Work on CN1CCc2nc(SCC(=O)c3ccc(-c4ccccc4)cc3)c(C#N)c(-c3cccs3)c2C1 [CBK267447] yielded a viability at 28.5 h, 10 µM of 88.3%. For CC1=C(C(=O)Nc2ccccc2)C(c2ccccc2)C(C#N)=C(SCc2ccncc2)N1 (stereo not drawn) [CBK267448], the viability at 28.5 h, 10 µM was 90.2%. CC(C)CC1C(C#N)=C(N)Oc2[nH]nc(-c3cccs3)c21 (stereo not drawn) [CBK267449] showed a viability at 28.5 h, 10 µM of 104%. For N#Cc1c(SCC(=O)N2CCc3ccccc3C2)nsc1SCC(=O)N1CCc2ccccc2C1 [CBK267453], the viability at 28.5 h, 10 µM was 93.6%. Work on CCOC(=O)CC(=O)CSc1nc(-c2cccnc2)ccc1C#N [CBK267456] yielded a viability at 28.5 h, 10 µM of 89.6%. With CSc1nc(N)nc2sc3c(O)cc(=O)[nH]c3c12 [CBK267457] the viability at 28.5 h, 10 µM was 105%. In the case of Nc1cc(N)nc(SCc2cccnc2)n1 [CBK267459], the viability at 28.5 h, 10 µM is reported as 97.5%. In the case of CSc1nc(N)nc(SC(C(=O)O)c2ccccc2)c1C#N (stereo not drawn) [CBK267461], the viability at 28.5 h, 10 µM is reported as 93.4%. CN1CCc2nc(SCc3cccnc3)c(C#N)cc2C1 [CBK267463] showed a viability at 28.5 h, 10 µM of 87.4%. Compound CN(C)S(=O)(=O)N1CCN(C(=O)N(c2ccccc2)c2ccccc2)CC1 [CBK267466] has a viability at 28.5 h, 10 µM of 96.7%. For O=C(c1cccc(Br)c1)N1CCN(S(=O)(=O)N2CCOCC2)CC1 [CBK267470], the viability at 28.5 h, 10 µM was 93.2%. Work on O=C(CCc1ccccc1)NC(=S)Nc1ccc(-c2nc3ccccc3[nH]2)cc1 [CBK267472] yielded a viability at 28.5 h, 10 µM of 77.1%. COC(=O)C1=C(C)N(CCc2ccccc2)C(=O)C1(NC(=O)c1ccccc1)C(F)(F)F (stereo not drawn) [CBK267477] gave a viability at 28.5 h, 10 µM of 86%. Work on Cn1ncc(C#N)c1NC(=O)C1CC(c2ccc(Cl)c(Cl)c2)=NO1 (stereo not drawn) [CBK267478] yielded a viability at 28.5 h, 10 µM of 93.7%. O=C(NCCN1CCOCC1)c1cc(-c2ccccc2)on1 [CBK267479] gave a viability at 28.5 h, 10 µM of 89.5%. O=C(NC1(C(F)(F)F)NC(=O)N(CCc2ccccc2)C1=O)c1ccco1 (stereo not drawn) [CBK267482] showed a viability at 28.5 h, 10 µM of 89.2%. For O=C(CSc1nnc(-c2cccs2)n1-c1ccccc1)Nc1ccnc2ccccc12 [CBK267487], the viability at 28.5 h, 10 µM was 94.4%. With Cc1ccc([N+](=O)[O-])cc1NC(=O)CSC1=NCCS1 [CBK267489] the viability at 28.5 h, 10 µM was 88.6%. CCn1cc(C(=O)O)c(=O)c2cc(F)c(N3CCN(C(=S)NC(=O)c4c(-c5ccccc5)noc4C)CC3)cc21 [CBK267490] gave a viability at 28.5 h, 10 µM of 86.8%. In the case of CCn1cc(C(=O)O)c(=O)c2cnc(N3CCN(C(=S)NC(=O)c4c(-c5ccccc5)noc4C)CC3)nc21 [CBK267491], the viability at 28.5 h, 10 µM is reported as 85%. Cc1onc(-c2ccccc2)c1C(=O)NC(=S)Nc1sc2c(c1C#N)CCC2 [CBK267492] showed a viability at 28.5 h, 10 µM of 89.1%. Work on Cc1onc(-c2ccccc2)c1C(=O)NNC(=S)NC(=O)c1ccc(Cl)cc1 [CBK267493] yielded a viability at 28.5 h, 10 µM of 91.1%. With CC(C)(C)c1ccc(COn2c(=O)c(-c3ccccc3Cl)[n+]([O-])c3ccccc32)cc1 [CBK267494] the viability at 28.5 h, 10 µM was 101%. Compound COc1ccc(CCNc2nc3c(c(=O)n(C)c(=O)n3C)n2Cc2ccccc2Br)cc1OC [CBK267495] has a viability at 28.5 h, 10 µM of 96.7%. With COCc1ccccc1Cn1cnc2ccccc21 [CBK267496] the viability at 28.5 h, 10 µM was 100%. O=C(CC1C(=O)N(c2cccc(Cl)c2)C(=O)N1CCc1cccs1)Nc1ccccc1 (stereo not drawn) [CBK267499] showed a viability at 28.5 h, 10 µM of 79.7%. Compound O=C1CC(SCCc2nc3ccccc3[nH]2)C(=O)N1c1ccc(F)cc1 (stereo not drawn) [CBK267500] has a viability at 28.5 h, 10 µM of 88.8%. In the case of CS(=O)(=O)N(CC(=O)Nc1ccc2ccccc2c1)c1ccc(Cl)cc1Cl [CBK267501], the viability at 28.5 h, 10 µM is reported as 87.6%. With O=[N+]([O-])c1ccc(S(=O)(=O)NCCSCc2ccco2)cc1 [CBK267503] the viability at 28.5 h, 10 µM was 94.1%. For Cc1ccc(SCCNS(=O)(=O)c2ccc3ccccc3c2)cc1 [CBK267504], the viability at 28.5 h, 10 µM was 88%. For O=C(CN1C(=O)c2ccc(Br)cc2C1=O)OCc1ccc(S(=O)(=O)N2CCOCC2)cc1 [CBK267505], the viability at 28.5 h, 10 µM was 84.6%. Work on CN(c1cccc(NS(=O)(=O)c2ccc3ccccc3c2)c1)S(C)(=O)=O [CBK267507] yielded a viability at 28.5 h, 10 µM of 85.7%. COc1ccc(C)cc1S(=O)(=O)N(C)CC(=O)Nc1cccc(SC)c1 [CBK267510] showed a viability at 28.5 h, 10 µM of 101%. In the case of CCN1CCN(c2cc(N3CCN(C(=O)COc4ccccc4F)C(C)C3)c([N+](=O)[O-])cc2F)CC1 (stereo not drawn) [CBK267513], the viability at 28.5 h, 10 µM is reported as 100%. CC(NC(=O)CSc1ncc(-c2ccccc2)nn1)c1ccccc1 (stereo not drawn) [CBK267514] gave a viability at 28.5 h, 10 µM of 85.7%. Cn1c2ccccc2c2nnc(SCc3ccc4nonc4c3)nc21 [CBK267515] showed a viability at 28.5 h, 10 µM of 89.9%. With c1ccc(Cn2c3ccccc3c3nnc(SCc4ccc5nonc5c4)nc32)cc1 [CBK267517] the viability at 28.5 h, 10 µM was 91.5%. With O=C(O)CCc1nn2c3ccccc3n(CCN3CCCCC3)c2nc1=O [CBK267519] the viability at 28.5 h, 10 µM was 97.5%. With Cc1ccc(C(=O)NC(=O)CSc2nc(N)n[nH]2)cc1 [CBK267523] the viability at 28.5 h, 10 µM was 90.9%. For O=C(CC(C(=O)O)n1cnc([N+](=O)[O-])n1)c1ccc(Br)cc1 (stereo not drawn) [CBK267524], the viability at 28.5 h, 10 µM was 89%. Compound N#CCCSc1nnc(-c2cccnc2)n1Cc1ccccc1 [CBK267526] has a viability at 28.5 h, 10 µM of 100%. O=C(CSc1nnc(-c2cccnc2)n1Cc1ccccc1)Nc1ccc(F)cc1 [CBK267528] showed a viability at 28.5 h, 10 µM of 96.8%. For CCn1c(Cc2c(C)[nH]c3ccccc23)nnc1SCC(=O)NC12CC3CC(CC(C3)C1)C2 [CBK267529], the viability at 28.5 h, 10 µM was 89.3%. In the case of COCCSc1ccccc1C(=O)Nc1ccc(S(N)(=O)=O)cc1 [CBK267530], the viability at 28.5 h, 10 µM is reported as 83.2%. Cc1ccc(N2CC(C(=O)Nc3ccc(S(=O)(=O)NCC4CCCO4)cc3)CC2=O)cc1 (stereo not drawn) [CBK267532] showed a viability at 28.5 h, 10 µM of 91.7%. Compound Cc1c(C(=O)Nc2ccc(S(=O)(=O)NCC3CCCO3)cc2)cccc1[N+](=O)[O-] (stereo not drawn) [CBK267533] has a viability at 28.5 h, 10 µM of 94.5%. In the case of COCCSc1nnc(NS(=O)(=O)Cc2ccccc2)s1 [CBK267535], the viability at 28.5 h, 10 µM is reported as 97.6%. Work on COc1ccc(C)cc1NC(=O)CSc1nnc(-c2ccccc2Cl)n1-c1ccccc1 [CBK267538] yielded a viability at 28.5 h, 10 µM of 82.9%. For O=C(CSc1nnc(-c2cccnc2)n1-c1ccccc1)Nc1cc(C(F)(F)F)ccc1Cl [CBK267540], the viability at 28.5 h, 10 µM was 90.8%. In the case of O=C(CCc1ccccc1)NNC(=O)C1C2C=CC(C2)C1C(=O)O (stereo not drawn) [CBK267541], the viability at 28.5 h, 10 µM is reported as 94.2%. O=C(CSC1c2ccccc2Sc2ccccc21)Nc1ccc(C(=O)O)cc1 [CBK267542] gave a viability at 28.5 h, 10 µM of 111%. With O=C(O)CCC(=O)N1N=C(c2c(-c3ccccc3)c3cc(Br)ccc3[nH]c2=O)CC1c1ccc([N+](=O)[O-])cc1 (stereo not drawn) [CBK267543] the viability at 28.5 h, 10 µM was 104%. Cc1ccc2nc(O)c(C3=NN(C(=O)CCC(=O)O)C(c4ccco4)C3)c(-c3ccccc3)c2c1 (stereo not drawn) [CBK267544] gave a viability at 28.5 h, 10 µM of 91%. In the case of CS(=O)(=O)Nc1ccc(C2=NN(S(C)(=O)=O)C(c3ccc4nccnc4c3)C2)cc1 (stereo not drawn) [CBK267546], the viability at 28.5 h, 10 µM is reported as 83.1%. Compound COc1cccc(-c2nnc(SCc3nc4ccccc4[nH]3)n2N)c1 [CBK267549] has a viability at 28.5 h, 10 µM of 91%. With Nn1c(SCc2ccc(Br)cc2)nnc1-c1ccccn1 [CBK267552] the viability at 28.5 h, 10 µM was 89.5%. Work on Nn1c(SCc2ccc(C(=O)O)cc2)nnc1-c1ccccn1 [CBK267553] yielded a viability at 28.5 h, 10 µM of 90.8%. Compound Cc1sc2nc(SCc3nc4ccccc4[nH]3)n(Cc3ccco3)c(=O)c2c1C [CBK267554] has a viability at 28.5 h, 10 µM of 112%.
